We go through 1 compound from US20240199618A1, “NOVEL N-ACYL-[3-SUBSTITUTED]-[8-SUBSTITUTED]-5,6-DIHYDRO-[1,2,4]TRIAZOLO[4,3-a]PYRAZINES AS SELECTIVE NK-3 RECEPTOR ANTAGONISTS, PHARMACEUTICAL COMPOSITION, METHODS FOR USE IN NK-3 RECEPTOR-MEDIATED DISORDERS” (Ogeda SA, priority 2013, published 2024).

SMILES strings stand for the structures. Read-outs that look alike come from different tables or passages of the source. Some results are limits rather than exact numbers.

In data set [1] the target is T1, human NK-3 receptor (Homo sapiens (Human), UniProt P29371). Description: Aequorin functional assay with human NK-3 receptor (antagonist testing vs NKA). The class given is cell-based. Particulars: CHO cells, NKA at EC80 (3 nM); read-out: Functional assay: Aequorin assay with human NK-3 receptor hNK-3-AEQ (antagonist IC50). The procedure, abridged:
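CHO cells co-expressing human NK-3 receptor and apoaequorin were pre-incubated 3 min with compound, then challenged with NKA at EC80 (3 nM). Coelenterazine-dependent luminescence was integrated over 90 s, and antagonism was derived from concentration-dependent inhibition of the calcium response.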

For data set [2], the target named is T1, human NK-3 receptor. Description: 3H-SB222200 binding competition assay with human NK-3 receptor. The procedure, abridged:
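Membranes from CHO cells stably expressing the receptor were incubated with 5 nM 3H-SB222200 and varying compound concentrations in HEPES 25 mM/NaCl 0.1 M/CaCl2 1 mM/MgCl2 5 mM/BSA 0.5%/saponin 10 μg/ml, pH 7.4. Bound radioligand was quantified as membrane-associated radioactivity after filtration.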

Data set [3] concerns the target human NK-2 receptor (Homo sapiens (Human), UniProt P21452). Description: Selectivity assay: [125I]-Neurokinin A binding, human NK-2 receptor. The following applies: 0.1 nM [125I]-Neurokinin A, CHO membranes; read-out: hNK-2 (Ki). As for the experimental part:
The affinity of compounds of the invention for the NK-2 receptor was evaluated in CHO recombinant cells which express the human NK-2 receptor. Membrane suspensions were prepared from these cells. […] Binding assays were performed in a 25 mM HEPES/1 mM CaCl2)/5 mM MgCl2/0.5% BSA/10 μg/ml saponin, at pH 7.4. […] The radioactivity retained on the filters was measured by using the TopCount-NXT reader (Packard).

Data set [4] deals with plasma protein. Put plainly: Determination of plasma protein binding (equilibrium dialysis, RED). The class given is in vitro ADME. Particulars: 4 hours at 37° C. For orientation: Equilibrium dialysis compares concentrations on both sides of a semipermeable membrane.
The target of data set [5] is human NK-1 receptor (Homo sapiens (Human), UniProt P25103). Description: Selectivity assay: [3H] substance P binding, human NK-1 receptor. Particulars: 2 nM [3H] substance P, CHO membranes; read-out: hNK-1 (Ki). The procedure, abridged: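 Competition binding on membranes from CHO cells expressing human NK-1 receptor, using 2 nM [3H] substance P in 50 mM Tris/5 mM MnCl2/150 mM NaCl/0.1% BSA, pH 7.4, with increasing compound concentrations. Incubated 60 min at 25 °C; bound radioactivity measured after filtration.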
Sequence of human NK-1 receptor (P25103 whole entry): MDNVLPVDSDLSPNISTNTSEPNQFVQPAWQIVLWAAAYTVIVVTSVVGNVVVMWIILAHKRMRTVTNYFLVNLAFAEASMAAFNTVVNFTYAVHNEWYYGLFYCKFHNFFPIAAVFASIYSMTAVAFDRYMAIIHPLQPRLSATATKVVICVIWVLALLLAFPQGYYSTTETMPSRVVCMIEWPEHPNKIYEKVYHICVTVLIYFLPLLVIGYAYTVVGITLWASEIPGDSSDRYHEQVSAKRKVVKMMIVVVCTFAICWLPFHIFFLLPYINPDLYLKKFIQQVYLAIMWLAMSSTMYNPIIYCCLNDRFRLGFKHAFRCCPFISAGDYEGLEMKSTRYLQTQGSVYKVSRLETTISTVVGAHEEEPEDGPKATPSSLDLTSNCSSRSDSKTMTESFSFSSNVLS

T1 sequence (P29371 whole entry): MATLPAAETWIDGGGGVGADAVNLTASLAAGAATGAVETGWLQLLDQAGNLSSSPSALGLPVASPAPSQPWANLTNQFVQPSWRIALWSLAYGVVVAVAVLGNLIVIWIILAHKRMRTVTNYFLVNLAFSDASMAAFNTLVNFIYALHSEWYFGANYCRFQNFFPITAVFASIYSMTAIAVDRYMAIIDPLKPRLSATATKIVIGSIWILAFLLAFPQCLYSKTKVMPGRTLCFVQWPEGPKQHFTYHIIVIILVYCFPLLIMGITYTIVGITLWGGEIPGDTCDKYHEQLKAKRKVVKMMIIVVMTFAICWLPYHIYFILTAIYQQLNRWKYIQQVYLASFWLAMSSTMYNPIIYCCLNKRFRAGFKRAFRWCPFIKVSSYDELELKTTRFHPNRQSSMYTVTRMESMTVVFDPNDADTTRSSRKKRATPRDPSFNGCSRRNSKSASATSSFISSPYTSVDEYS
Sequence of human NK-2 receptor (P21452 whole entry): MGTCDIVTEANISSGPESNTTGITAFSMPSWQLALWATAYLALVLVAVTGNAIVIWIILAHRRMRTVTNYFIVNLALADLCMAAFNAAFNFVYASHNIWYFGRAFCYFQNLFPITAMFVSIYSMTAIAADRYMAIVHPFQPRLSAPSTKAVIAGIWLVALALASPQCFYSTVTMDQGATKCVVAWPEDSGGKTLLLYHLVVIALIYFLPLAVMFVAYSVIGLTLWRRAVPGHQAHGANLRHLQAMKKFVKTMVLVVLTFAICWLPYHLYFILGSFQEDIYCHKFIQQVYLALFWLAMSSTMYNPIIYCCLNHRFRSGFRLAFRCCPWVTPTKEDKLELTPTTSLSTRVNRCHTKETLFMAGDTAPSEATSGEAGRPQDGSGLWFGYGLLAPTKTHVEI

In the case of `Cc1nsc(-c2nnc3n2CCN(C(=O)c2ccc(F)cc2)[C@@H]3C)n1` [Compound 5, (R)-(4-fluorophenyl)(8-methyl-3-(3-methyl-1,2,4-thiadiazol-5-yl)-5,6-dihydro-[1,2,4]triazolo[4,3-a]pyrazin-7(8H)-yl)methanone], the IC50 – broadly, the concentration that gives 50% inhibition – in data set [1] turned out to be 18 nM. The Ki – broadly, the equilibrium dissociation constant of an inhibitor or competing ligand from its target – in data set [2] (Table 2, 5 nM 3H-SB222200, CHO membranes, read-out: Competitive binding assay with human NK-3 receptor hNK-3 (Ki)) is 23 nM; in data set [2] (Table 3 (selectivity table), read-out: hNK-3 (Ki)), 23 nM; in data set [3] it was greater than 30000 nM; in data set [5] it was greater than 30000 nM. In data set [4], the “Exposure (% rPPB), bound drug fraction to plasma protein” value is given as 22%.
